Measurements published in US6737383B1, “Herbicidal oxadiazolidines” (priority 1999, dated 2004).

Legend:
downy brome = assay: Test E downy brome; type: in vivo, Bromus tectorum; conditions: Preemergence
lambsquarters = assay: Test E lambsquarters; type: in vivo, Chenopodium album; conditions: Postemergence
Description: (§1) Compounds evaluated in this test were formulated in a non-phytotoxic solvent mixture which included a surfactant and applied to plants that were in the 1- to 4-leaf stage (postemergence application). A mixture of sandy loam soil and greenhouse potting mix in a 60:40 ratio was used for the postemergence test.
(§2) Plantings of these crops and weed species were adjusted to produce plants of appropriate size for the postemergence test. All plant species were grown using normal greenhouse practices. Crop and weed species include annual bluegrass (Poa annua), blackgrass (Alopecurus myosuroides), black nightshade (Solanum nigra), chickweed (Stellaria media), common poppy (Papaver rhoeas), deadnettle (Lamium amplexicaule), downy brome (Bromus tectorum), field violet (Viola arvensis), galium (Galium aparine), green foxtail (Setaria viridis), Italian ryegrass (Lolium multiflorum), jointed goatgrass (Aegilops cylindrica), kochia (Kochia scoparia), lambsquarters (Chenopodium album), littleseed canarygrass (Phalaris minor), rape (Brassica napus), redroot pigweed (Amaranthus retroflexus), Russian thistle (Salsola kali), scentless chamomile (Matricaria inodora), spring barley (Hordeum vulgare), sugar beet (Beta vulgaris), sunflower (Helianthus annuus), ivyleaf speedwell (Veronica hederaefolia), spring wheat (Triticum aestivum), winter wheat (Triticum aestivum), wild buckwheat (Polygonum convolvulus), wild mustard (Sinapis arvensis), wild oat (Avena fatua), windgrass (Apera spica-venti) and winter barley (Hordeum vulgare).
(§3) Treated plants and untreated controls were maintained in a greenhouse for approximately 21 to 28 days, after which all treated plants were compared to untreated controls and visually evaluated. […] A dash response (-) means no test result.

soybean = assay: Test C postemergence soybean; type: in vivo, Glycine max; conditions: 0 to 100 scale, 0 no effect, 100 complete control
Outline: (§4)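 Activity is expressed as percent-style visual control, 0 (no effect) to 100 (complete control), assessed approximately 14 to 21 days after application, relative to untreated plants. Application was postemergence, using a non-phytotoxic solvent formulation with surfactant.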

field violet [1] = assay: Test E field violet; type: in vivo, Viola arvensis; conditions: Postemergence
Outline: (§5)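 Plants were grown under normal greenhouse practice; for postemergence, in sandy loam soil mixed 60:40 with potting mix, treated at the 1- to 4-leaf stage. The compound was in a non-phytotoxic solvent carrying a surfactant. After roughly 21 to 28 days plants were scored visually against untreated plants.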

wild oat = assay: Test E wild oat; type: in vivo, Avena fatua; conditions: Postemergence
Outline: as §5

large crabgrass = assay: Test C postemergence large crabgrass; type: in vivo, Digitaria sanguinalis; conditions: 0 to 100 scale, 0 no effect, 100 complete control
Description: as §1, with “grown for various periods of time before treatment” for “in the 1- to 4-leaf stage”
(§6) Plantings of these crops and weed species were adjusted to produce plants of appropriate size for the postemergence test. All plant species were grown using normal greenhouse practices. Crop and weed species include arrowleaf sida (Sida rhombifolia), barnyardgrass (Echinochloa crus-galli), cocklebur (Xanthium strumarium), common ragweed (Ambrosia elatior), corn (Zea mays), cotton (Gossypium hirsutum), eastern black nightshade (Solanum ptycanthum), fall panicum (Panicum dichotomiflorum), field bindweed (Convolvulus arvensis), giant foxtail (Setaria faberii), hairy beggarticks (Bidens pilosa), ivyleaf morningglory (Ipomoea hederacea), johnsongrass (Sorghum halepense), ladysthumb smartweed (Polygonum persicaria), lambsquarters (Chenopodium album), large crabgrass (Digitaria sanguinalis), purple nutsedge (Cyperus rotundus), redroot pigweed (Amaranthus retroflexus), soybean (Glycine max), surinam grass (Brachiaria decumbens), velvetleaf (Abutilon theophrasti) and wild poinsettia (Euphorbia heterophylla).
(§7) Treated plants and untreated controls were maintained in a greenhouse for approximately 14, to 21 days, after which all treated plants were compared to untreated controls and visually evaluated. Plant response ratings, summarized in Table C, were based upon a 0 to 100 scale where 0 was no effect and 100 was complete control. A dash response (−) means no test result.

rape = assay: Test E rape; type: in vivo, Brassica napus; conditions: Postemergence
Description: […] A mixture of sandy loam soil and greenhouse potting mix in a 60:40 ratio was used for the postemergence test.
as §2, §3

Italian ryegrass = assay: Test E Italian ryegrass; type: in vivo, Lolium multiflorum; conditions: Postemergence
Outline: as §5

surinam grass = assay: Test C postemergence surinam grass; type: in vivo, Brachiaria decumbens; conditions: 0 to 100 scale, 0 no effect, 100 complete control
Description: as §1, with “grown for various periods of time before treatment” for “in the 1- to 4-leaf stage”
as §6, §7

black nightshade = assay: Test E black nightshade; type: in vivo, Solanum nigra; conditions: Postemergence
Description: as §1, §2, §3

field violet [2] = assay: Test E field violet; type: in vivo, Viola arvensis; conditions: Preemergence
scentless chamomile = assay: Test E scentless chamomile; type: in vivo, Matricaria inodora; conditions: Postemergence
Outline: as §5

windgrass [3] = assay: Test E windgrass; type: in vivo, Apera spica-venti; conditions: Preemergence
barnyardgrass = assay: Test C postemergence barnyardgrass; type: in vivo, Echinochloa crus-galli; conditions: 0 to 100 scale, 0 no effect, 100 complete control
Description: as §1, with “grown for various periods of time before treatment” for “in the 1- to 4-leaf stage”
as §6, §7

ivyleaf morningglory = assay: Test C postemergence ivyleaf morningglory; type: in vivo, Ipomoea hederacea; conditions: 0 to 100 scale, 0 no effect, 100 complete control
Outline: as §4

windgrass [4] = assay: Test E windgrass; type: in vivo, Apera spica-venti; conditions: Postemergence, Rate 62 g/ha; 0 to 100 scale
Outline: as §5

kochia = assay: Test E kochia; type: in vivo, Kochia scoparia; conditions: Preemergence
[5] = Rate 62 g/ha, 0 to 100 scale, 0 no effect, 100 complete control
[6] = Rate 125 g/ha, 0 to 100 scale (0 no effect, 100 complete control)
[7] = Rate 250 g/ha, 0 to 100 scale (0 no effect, 100 complete control)
[8] = Rate 500 g/ha, 0 to 100 scale where 0 is no effect and 100 is complete control
[9] = Rate 500 g/ha, 0 to 100 scale, 0 no effect, 100 complete control

CCn1c(=O)on(C(=O)N(c2ccc(F)cc2)C(C)C)c1=O [Compound 107]
20: Plant response rating, Rape (rape; Rate 62 g/ha, 0 to 100 scale) | Plant response rating, Field violet (field violet [2]; Rate 250 g/ha, 0 to 100 scale)
50: Plant response rating, Downy brome (downy brome; [5]) | Plant response rating, Rape (rape; [7]) | Plant response rating, I. Ryegrass (Italian ryegrass; Rate 125 g/ha, 0 to 100 scale) | Plant response rating, Kochia (kochia; [5])
45: Plant response rating, Soybean (soybean; Rate 140 g/ha)
0: Plant response rating, Field violet (field violet [1]; Rate 62 g/ha, 0 to 100 scale) | Plant response rating, Field violet (field violet [1]; [7]) | Plant response rating, Wild oat (wild oat; [7]) | Plant response rating, I. Ryegrass (Italian ryegrass; Rate 62 g/ha, 0 to 100 scale) | Plant response rating, Scentless chamo (scentless chamomile; Rate 125 g/ha, 0 to 100 scale)
30: Plant response rating, Rape (rape; Rate 125 g/ha, 0 to 100 scale) | Plant response rating, I. Ryegrass (Italian ryegrass; [7]) | Plant response rating, Blk nightshade (black nightshade; Rate 125 g/ha, 0 to 100 scale) | Plant response rating, Field violet (field violet [2]; [6]) | Plant response rating I. morningglory (ivyleaf morningglory; Rate 280 g/ha) | Plant response rating I. morningglory (ivyleaf morningglory; Rate 560 g/ha)
10: Plant response rating, Surinam grass (surinam grass; Rate 140 g/ha) | Plant response rating, Blk nightshade (black nightshade; Rate 62 g/ha, 0 to 100 scale) | Plant response rating, Scentless chamo (scentless chamomile; Rate 62 g/ha, 0 to 100 scale) | Plant response rating, Scentless chamo (scentless chamomile; [7]) | Plant response rating I. morningglory (ivyleaf morningglory; Rate 140 g/ha)
60: Plant response rating, Downy brome (downy brome; [6]) | Plant response rating, Blk nightshade (black nightshade; [7]) | Plant response rating, Kochia (kochia; [6])
95: Plant response rating Large crabgrass (large crabgrass; Rate 560 g/ha) | Plant response rating Large crabgrass (large crabgrass; Rate 1120 g/ha) | Plant response rating, Surinam grass (surinam grass; Rate 1120 g/ha) | Plant response rating, Barnyardgrass (barnyardgrass; Rate 1120 g/ha) | Plant response rating I. morningglory (ivyleaf morningglory; Rate 1120 g/ha)
70: Plant response rating, Soybean (soybean; Rate 280 g/ha) | Plant response rating Large crabgrass (large crabgrass; Rate 140 g/ha) | Plant response rating, Surinam grass (surinam grass; Rate 280 g/ha) | Plant response rating, Field violet (field violet [2]; [5]) | Plant response rating, Barnyardgrass (barnyardgrass; Rate 140 g/ha)
75: Plant response rating, Downy brome (downy brome; Rate 250 g/ha, 0 to 100 scale)
5: Plant response rating, Lambsquarters (lambsquarters; [7]) | Plant response rating, Wild oat (wild oat; Rate 62 g/ha, 0 to 100 scale) | Plant response rating, Wild oat (wild oat; Rate 125 g/ha, 0 to 100 scale)
15: Plant response rating, Lambsquarters (lambsquarters; Rate 62 g/ha, 0 to 100 scale) | Plant response rating, Lambsquarters (lambsquarters; Rate 125 g/ha, 0 to 100 scale)
85: Plant response rating, Soybean (soybean; Rate 560 g/ha) | Plant response rating, Soybean (soybean; Rate 1120 g/ha) | Plant response rating Large crabgrass (large crabgrass; Rate 280 g/ha) | Plant response rating, Barnyardgrass (barnyardgrass; Rate 280 g/ha) | Plant response rating, Windgrass (windgrass [4])
25: Plant response rating, Field violet (field violet [1]; Rate 125 g/ha, 0 to 100 scale)
90: Plant response rating, Barnyardgrass (barnyardgrass; Rate 560 g/ha)
80: Plant response rating, Surinam grass (surinam grass; Rate 560 g/ha) | Plant response rating, Kochia (kochia; Rate 250 g/ha, 0 to 100 scale)
100: Plant response rating, Windgrass (windgrass [3]; [5]) | Plant response rating, Windgrass (windgrass [3]; [6])

CCn1c(=O)on(C(=O)N(c2ccc(F)cc2F)C(C)C)c1=O [Compound 116]
85: Plant response rating, Barnyardgrass (barnyardgrass; Rate 280 g/ha) | Plant response rating, Kochia (kochia; Rate 250 g/ha, 0 to 100 scale)
70: Plant response rating, Downy brome (downy brome; [8]) | Plant response rating, Wild oat (wild oat; [9]) | Plant response rating, I. Ryegrass (Italian ryegrass; [7]) | Plant response rating, Windgrass (windgrass [4]) | Plant response rating, Kochia (kochia; [8])
10: Plant response rating, Soybean (soybean; Rate 140 g/ha) | Plant response rating, Soybean (soybean; Rate 280 g/ha) | Plant response rating, Rape (rape; Rate 62 g/ha, 0 to 100 scale) | Plant response rating, Blk nightshade (black nightshade; Rate 62 g/ha, 0 to 100 scale)
0: Plant response rating, Lambsquarters (lambsquarters; [7]) | Plant response rating, Lambsquarters (lambsquarters; [9]) | Plant response rating, Field violet (field violet [1]; Rate 125 g/ha, 0 to 100 scale) | Plant response rating, Field violet (field violet [1]; [7]) | Plant response rating, Field violet (field violet [1]; [9]) | Plant response rating, Wild oat (wild oat; Rate 125 g/ha, 0 to 100 scale) | Plant response rating Large crabgrass (large crabgrass; Rate 140 g/ha) | Plant response rating Large crabgrass (large crabgrass; Rate 280 g/ha) | Plant response rating, Rape (rape; Rate 125 g/ha, 0 to 100 scale) | Plant response rating, Rape (rape; [7]) | Plant response rating, I. Ryegrass (Italian ryegrass; Rate 62 g/ha, 0 to 100 scale) | Plant response rating, I. Ryegrass (Italian ryegrass; [9]) | Plant response rating, Surinam grass (surinam grass; Rate 140 g/ha) | Plant response rating, Surinam grass (surinam grass; Rate 280 g/ha) | Plant response rating, Scentless chamo (scentless chamomile; Rate 125 g/ha, 0 to 100 scale) | Plant response rating, Scentless chamo (scentless chamomile; [7]) | Plant response rating I. morningglory (ivyleaf morningglory; Rate 140 g/ha) | Plant response rating I. morningglory (ivyleaf morningglory; Rate 280 g/ha) | Plant response rating I. morningglory (ivyleaf morningglory; Rate 560 g/ha) | Plant response rating, Kochia (kochia; [6])
30: Plant response rating, Lambsquarters (lambsquarters; Rate 125 g/ha, 0 to 100 scale) | Plant response rating, Soybean (soybean; Rate 560 g/ha) | Plant response rating, Wild oat (wild oat; [7]) | Plant response rating Large crabgrass (large crabgrass; Rate 560 g/ha) | Plant response rating, Rape (rape; [9])
60: Plant response rating, Downy brome (downy brome; [6]) | Plant response rating, Field violet (field violet [1]; Rate 62 g/ha, 0 to 100 scale) | Plant response rating, Blk nightshade (black nightshade; [9])
55: Plant response rating, Barnyardgrass (barnyardgrass; Rate 140 g/ha)
50: Plant response rating, Downy brome (downy brome; Rate 250 g/ha, 0 to 100 scale) | Plant response rating, I. Ryegrass (Italian ryegrass; Rate 125 g/ha, 0 to 100 scale) | Plant response rating, Blk nightshade (black nightshade; Rate 125 g/ha, 0 to 100 scale) | Plant response rating, Blk nightshade (black nightshade; [7]) | Plant response rating, Field violet (field violet [2]; [6]) | Plant response rating, Scentless chamo (scentless chamomile; Rate 62 g/ha, 0 to 100 scale)
40: Plant response rating, Soybean (soybean; Rate 1120 g/ha) | Plant response rating, Field violet (field violet [2]; Rate 250 g/ha, 0 to 100 scale) | Plant response rating, Scentless chamo (scentless chamomile; [9])
20: Plant response rating, Lambsquarters (lambsquarters; Rate 62 g/ha, 0 to 100 scale) | Plant response rating, Wild oat (wild oat; Rate 62 g/ha, 0 to 100 scale) | Plant response rating I. morningglory (ivyleaf morningglory; Rate 1120 g/ha)
100: Plant response rating, Windgrass (windgrass [3]; [6]) | Plant response rating, Windgrass (windgrass [3]; [8])
90: Plant response rating Large crabgrass (large crabgrass; Rate 1120 g/ha) | Plant response rating, Surinam grass (surinam grass; Rate 1120 g/ha) | Plant response rating, Field violet (field violet [2]; [8]) | Plant response rating, Barnyardgrass (barnyardgrass; Rate 560 g/ha) | Plant response rating, Barnyardgrass (barnyardgrass; Rate 1120 g/ha)
